“Also recorded” adds a separate entry of the source.
Tests used:
[1] = system: B16 melanoma heparanase; test: Enzymatic degradation of 3H-labeled glycosaminoglycans by B16 melanoma cell extract, analysed by high-speed gel permeation chromatography; type: biochemical, mouse; details: for Degradation (heparanase susceptibility): 3H-labeled glycosaminoglycan, cell extract 80 ug protein, pH 6.0, 6 hr at 37 C, 20 mM SAL, decrease in area of high Mr half of peak; for Cleavage by melanoma heparanase (in words): B16 melanoma cell extracts in presence of SAL, FIG. 2; for Percentage degradation of the original substrate: first 6 h incubation with B16 cell extract
Description: The abilities of B16 cells to degrade HS from various origins and other purified glycosaminoglycans (heparin, chondroitin 4-sulfate, chondroitin 6-sulfate, dermatan sulfate, keratan sulfate, and hyaluronic acid) has been studied. […] HS metabolically labeled with [^35 S] sulfate was purified from basement membrane producing EHS sarcoma and PYS-2 carcinoma cells, and subendothelial matrices of bovine aortic endothelial (BAE) and corneal endothelial (BCE) cells (ibid). HS molecules purified from bovine lung and other glycosaminoglycans were labeled with tritium at their reducing termini using NaB[^3 H]4. […] In order to determine specific HS cleavage points, the newly formed reducing termini of HS fragments were investigated by: labeling with NaB[^3 H]4; hydrolysis to monosaccharides; and analysis of these saccharides by paper chromatography.
High-speed gel permeation chromatography. […] A one hundred microliter aliquot of sample solution was delivered into the injection port, and the chromatographic elution was performed with 0.2M sodium chloride at a flow rate of 1.0 ml/min at 55° C. […] In the analysis of radiolabeled materials, fractions corresponding to each 36 s of elution (0.6 ml) were collected and mixed with 3.0 ml of Liquiscint (National Diagnostics, Comerville, N.J.), and counted on a Beckman LS 2800 liquid scintillation counter (Beckman Instruments, Irvine, Calif.).
Enzymatic degradation of unmodified and modified HS. […] The incubation was carried out at 37° C. with gentle mixing, and was terminated by chilling the mixture to 4° C. and adding 20 ul of trichloroacetic acid to a final concentration of 5%. The supernatant was obtained by centrifugation at 9800×g for 5 min and it was subjected to analysis by high-speed gel permeation chromatography.
The effect of N-desulfation and N-acetylation of HS on its susceptibility to melanoma heparanase was assessed using HS labeled with tritium at the reducing terminal saccharide. […] HS labeled with tritium at the reducing end was N-desulfated by solvolysis with DMSO, and N-desulfated [^3 H]HS was then N-acetylated with acetic anhydride. These three ^3 H-labeled, chemically modified HS molecules were analyzed by cellulose acetate electrophoresis in 0.5M pyridine-acetate buffer, pH 5.0.
N-Desulfated and N-acetylated heparin.

[2] = system: human melanoma heparanase; test: Degradation by heparanase obtained from a human melanoma cell line; type: biochemical
[3] = system: B16 melanoma heparanase; details: labeled glycosaminoglycans, with or without D-saccharic acid 1,4-lactone; cited from earlier work
[4] = system: human melanoma heparanase; test: Inhibition of human melanoma heparanase; type: biochemical
Description: Properties of human melanoma heparanase.

[5] = system: B16 melanoma heparanase; details: cited from earlier work

| Substance | Degradation (heparanase susceptibility) [1] | Degradation by B16 cell extracts (earlier publications) [3] | also measured |
| --- | --- | --- | --- |
| N,O-Desulfated and N-acetylated heparin | ± (5% to 15%) | – | – |
| N-desulfated N-acetylated heparan sulfate [N-Desulfated and N-acetylated HS] | + (more than 80%) | – | Cleavage by melanoma heparanase (in words) [1]: cleaved by melanoma heparanase at high rates; Degradation by human melanoma heparanase (in words) [2]: efficiently cleave |
| chondroitin 4-sulfate | – | essentially undegraded | – |
| chondroitin 6-sulfate | – | essentially undegraded | – |
| dermatan sulfate | – | essentially undegraded | – |
| dextransulfate | – | – | Inhibition of melanoma heparanase (in words) [4]: potent inhibitors |
| hyaluronic acid | – | essentially undegraded | – |
| keratan sulfate | – | essentially undegraded | – |

The next lines start with results.

| Degradation (heparanase susceptibility) [1] | Substance | Degradation by B16 cell extracts (earlier publications) [3] | also measured |
| --- | --- | --- | --- |
| - (less than 5%) | Carboxyl reduced heparin | – | – |
| + (more than 80%) | Heparan sulfate [Heparan sulfate (HS)] | degraded into fragments of characteristic molecular weight | Cleavage by melanoma heparanase (in words) [1]: cleaved by melanoma heparanase at high rates; Degradation by human melanoma heparanase (in words) [2]: degrades heparan sulfate |
| - (less than 5%) | Heparin | essentially undegraded; also recorded: inactive | Percentage degradation of the original substrate [1]: less than 5%; Inhibition of melanoma heparanase (in words) [4]: potent inhibitors; Inhibition of HS degradation / B16 melanoma heparanase (earlier publications) [5]: inhibited HS degradation; also recorded: potent inhibitor |
| + (more than 80%) | N,O-Desulfated HS | – | – |
| + (more than 80%) | N,O-Desulfated and N-acetylated HS | – | – |
| - (less than 5%) | N,O-Desulfated heparin | – | – |
| - (less than 5%) | N-Desulfated and N-methylated heparin | – | – |
| - (less than 5%) | N-Desulfated heparin | – | – |
| ± (5% to 15%) | N-desulfated N-acetylated heparin [N-Desulfated and N-acetylated heparin] | – | Percentage degradation of the original substrate [1]: approximately 20%; Further cleavage after prolonged incubation ([1]; prolonged incubation with B16 cell extract): not further cleaved; Degradation by human melanoma heparanase (in words) [2]: only partially degrade |
| + (more than 80%) | N-desulfated heparan sulfate [N-Desulfated HS] | – | Cleavage by melanoma heparanase (in words) [1]: cleaved by melanoma heparanase at high rates; Degradation by human melanoma heparanase (in words) [2]: efficiently cleave |
